Legend:
[1] = test system: VERPE (Veronica persica, bird's-eye speedwell); assay: Post-emergence foliar-applied weed control in cereal crops, greenhouse (Example III); format: in vivo, Veronica persica Poir.
How it was run: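 Greenhouse plants at the second or third true leaf stage (14 hour photoperiod, about 18/17 °C) were track-sprayed at 187 L/ha with Compound A SC, a second cereal herbicide, or their combinations, using 1.25% v/v crop oil concentrate. Injury was scored visually at 20-22 days against solvent-blank controls on a 0–100% scale. Expected mixture effects were calculated with Colby's equation.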

[2] = test system: SIDSP (Sida spinosa, prickly sida); assay: Post-emergence herbicidal activity of mixtures in forage crops, greenhouse (Example IV); format: in vivo, Sida spinosa L.; conditions: Table 58 (forage), foliar-applied, after approximately 21 days
Method: Seeds or root cuttings of the desired test plant species were planted in Sun Gro MetroMix® 306 planting mixture, which typically has a pH of 6.0 to 6.8 and an organic matter content of about 30 percent, in plastic pots with a surface area of 126.6 square centimeters (cm^2). When required to ensure good germination and healthy plants, a fungicide treatment and/or other chemical or physical treatment was applied. The plants were grown for 14-60 days in a greenhouse with an approximate 14 hour photoperiod which was maintained at approximately 28° C. during the day and 24° C. during the night. Nutrients and water were added on a regular basis and supplemental lighting was provided with overhead metal halide 1000-Watt lamps as necessary. The plants were employed for testing when they reached the BBCH13 to BBCH23 leaf stage.
Treatments consisted of the benzyl ester of 4-amino-3-chloro-5-fluoro-6-(4-chloro-2-fluoro-3-methoxy-phenyl)pyridine-2-carboxylic acid (Compound A), formulated as a SC, and a second herbicide alone and in combination.
A measured aliquot of Compound A was placed in 25 milliliter (mL) glass vial and diluted in a volume of 1.25% (v/v) Agri-dex crop oil concentrated to obtain stock solutions. Compound requirements are based upon a 12 mL application volume at a rate of 187 liters per hectare (L/ha). Spray solutions of the second cereal herbicide and experimental compound mixtures were prepared by adding the stock solutions to the appropriate amount of dilution solution to form 12 mL spray solution with active ingredients in two- and three-way combinations. […]
The treated plants and control plants were placed in a greenhouse as described above and watered by sub-irrigation to prevent wash-off of the test compounds. After approximately 21 days, the condition of the test plants, as compared with that of the control plants, was determined visually and scored on a scale of 0 to 100 percent where 0 corresponds to no injury and 100 corresponds to complete kill. […]

In the case of `COc1c(Cl)ccc(-c2nc(C(=O)OCc3ccccc3)c(Cl)c(N)c2F)c1F` [Compound A Benzyl Ester], the “Weed Control VERPE Obs” value ([1]; Table 51, after 20-22 days, 8.75 gai/ha alone) is reported as 50%, the “Weed Control VERPE Obs” value ([1]; Table 53, after 20-22 days, 8.75 gai/ha alone) is reported as 50% and the “Weed Control VERPE Obs” value ([1]; Table 55, after 20-22 days, 8.75 gai/ha alone) is reported as 50%. The “Weed Control VERPE Obs” value ([1]; Table 57, after 20-22 days, 8.75 gai/ha Compound A Benzyl Ester alone) was 50%, the “Weed Control SIDSP Obs” value ([2]; 2.2 gai/ha alone) was 77% and the “Weed Control SIDSP Obs” value ([2]; 4.4 gai/ha alone) was 85%.

— patent US8871681B2, “Herbicidal compositions comprising 4-amino-3-chloro-5-fluoro-6-(4-chloro-2-fluoro-3-methoxyphenyl) pyridine-2-carboxylic acid or a derivative thereof and certain sulfonylureas” (Dow AgroSciences LLC, priority 2012, dated 2014)
